# Target: human recombinant Btk (Homo sapiens (Human), UniProt Q06187)
# Assay: Btk Enzymatic Activity Assay (Caliper-based kinase assay)
# Format: biochemical
# Settings: not given
# Experimental: A Caliper-based kinase assay (Caliper Life Sciences, Hopkinton, Mass.) was used to measure inhibition of Btk kinase activity of a compound of the present disclosure. […] The reaction was then terminated with EDTA, final concentration 20 mM and the phosphorylated reaction product was quantified on a Caliper Desktop Profiler (Caliper LabChip 3000). […] This value is presented as the IC50.
# Sequence of human recombinant Btk (Q06187 whole entry): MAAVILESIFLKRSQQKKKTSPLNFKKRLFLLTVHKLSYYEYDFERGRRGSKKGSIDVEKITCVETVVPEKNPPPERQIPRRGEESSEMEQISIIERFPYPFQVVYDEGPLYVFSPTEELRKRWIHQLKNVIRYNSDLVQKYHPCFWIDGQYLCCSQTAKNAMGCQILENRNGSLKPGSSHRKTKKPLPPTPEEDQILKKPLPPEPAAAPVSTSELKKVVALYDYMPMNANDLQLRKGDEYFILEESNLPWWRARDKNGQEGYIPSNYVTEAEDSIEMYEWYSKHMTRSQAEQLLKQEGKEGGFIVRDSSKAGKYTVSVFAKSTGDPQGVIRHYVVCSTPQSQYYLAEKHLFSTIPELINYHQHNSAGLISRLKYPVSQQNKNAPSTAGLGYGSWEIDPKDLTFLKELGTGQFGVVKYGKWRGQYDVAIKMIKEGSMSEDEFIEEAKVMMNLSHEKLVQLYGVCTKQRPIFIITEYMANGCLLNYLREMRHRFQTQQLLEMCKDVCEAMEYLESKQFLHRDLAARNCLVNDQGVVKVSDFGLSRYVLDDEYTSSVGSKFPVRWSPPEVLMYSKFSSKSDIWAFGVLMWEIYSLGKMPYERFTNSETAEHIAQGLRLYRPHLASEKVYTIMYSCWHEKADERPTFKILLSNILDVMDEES
row,Structure (SMILES),IC50 [nM]
1,"CCN1CCN(C(C)(C)C=C(C#N)C(=O)N2CCC[C@H]2Cn2nc(-c3ccc(Oc4ccccc4)cc3F)c3c(N)ncnc32)CC1 [Example 8A, 2-[(2S)-2-[[4-amino-3-(2-fluoro-4-phenoxyphenyl)pyrazolo[3,4-d]pyrimidin-1-yl]-methyl]pyrrolidine-1-carbonyl]-4-methyl-4-(4-ethylpiperazin-1-yl)pent-2-enenitrile]",0.9
2,"CN1CCN(C(C)(C)C=C(C#N)C(=O)N2CCC[C@H]2Cn2nc(-c3ccc(Oc4ccccc4)cc3F)c3c(N)ncnc32)CC1 [Example 8, 2-[(2S)-2-[[4-amino-3-(2-fluoro-4-phenoxyphenyl)pyrazolo[3,4-d]pyrimidin-1-yl]-methyl]pyrrolidine-1-carbonyl]-4-methyl-4-(4-methylpiperazin-1-yl)pent-2-enenitrile]",3.8
3,"CC(C)(C=C(C#N)C(=O)N1CCC[C@H]1Cn1nc(-c2ccc(Oc3ccccc3)cc2F)c2c(N)ncnc21)N1CC2(COC2)C1 [Example 19a, (S)-2-(2-((4-amino-3-(2-fluoro-4-phenoxyphenyl)-1H-pyrazolo[3,4-d]pyrimidin-1-yl)methyl)pyrrolidine-1-carbonyl)-4-methyl-4-(2-oxa-6-azaspiro[3.3]heptan-6-yl)pent-2-enenitrile]",5.6

# Same assay, conditions: human recombinant Btk 0.5 nM, ATP 16 μM, room temperature 3 h
row,Structure (SMILES),IC50 [nM]
1,"CCN(C1COC1)C(C)(C)C=C(C#N)C(=O)N1CCC[C@@H](n2nc(-c3ccc(Oc4ccccc4)cc3F)c3c(N)ncnc32)C1 [Example 13a, (R)-2-(3-(4-amino-3-(2-fluoro-4-phenoxyphenyl)-1H-pyrazolo[3,4-d]pyrimidin-1-yl)piperidine-1-carbonyl)-4-(ethyl(oxetan-3-yl)amino)-4-methylpent-2-enenitrile]",0.9
2,"CC(C)(C=C(C#N)C(=O)N1CCC[C@@H](n2nc(-c3ccc(Oc4ccccc4)cc3F)c3c(N)ncnc32)C1)N1CC(O)C1 [Example 7, 2-((R)-3-(4-amino-3-(2-fluoro-4-phenoxyphenyl)-1H-pyrazolo[3,4-d]pyrimidin-1-yl)piperidine-1-carbonyl)-4-(3-hydroxyazetidin-1-yl)-4-methylpent-2-enenitrile]",0.9
3,"CC(C)(C=C(C#N)C(=O)N1CCC[C@H]1Cn1nc(-c2ccc(Oc3ccccc3)cc2F)c2c(N)ncnc21)CN1CCOCC1 [Example 30, (S)-2-(2-((4-amino-3-(2-fluoro-4-phenoxyphenyl)-1H-pyrazolo[3,4-d]pyrimidin-1-yl)methyl)pyrrolidine-1-carbonyl)-4,4-dimethyl-5-morpholinopent-2-enenitrile]",5.2
4,"CN(C1COC1)C(C)(C)C=C(C#N)C(=O)N1CCC[C@@H](n2nc(-c3ccc(Oc4ccccc4)cc3F)c3c(N)ncnc32)C1 [Example 13, 2-[(3R)-3-[4-amino-3-(2-fluoro-4-phenoxy-phenyl)pyrazolo[3,4-d]pyrimidin-1-yl]piperidine-1-carbonyl]-4-methyl-4-[methyl(oxetan-3-yl)amino]pent-2-enenitrile]",0.6
5,"CC(C)(C=C(C#N)C(=O)N1CCC[C@H]1Cn1nc(-c2ccc(Oc3ccccc3)cc2F)c2c(N)ncnc21)N1CCCC1 [Example 5, (S)-2-(2-((4-amino-3-(2-fluoro-4-phenoxyphenyl)-1H-pyrazolo[3,4-d]-pyrimidin-1-yl)-methyl)pyrrolidine-1-carbonyl)-4-methyl-4-(pyrrolidin-1-yl)pent-2-enenitrile]",1.9
6,"CCN1CCN(C(C)(C)C=C(C#N)C(=O)N2CCC[C@@H](n3nc(-c4ccc(Oc5ccccc5)cc4F)c4c(N)ncnc43)C2)CC1 [Example 20, 2-[(3R)-3-[4-amino-3-(2-fluoro-4-phenoxy-phenyl)pyrazolo[3,4-d]-pyrimidin-1-yl]piperidine-1-carbonyl]-4-(4-ethylpiperazin-1-yl)-4-methyl-pent-2-enenitrile]",0.9
7,"CC(C)(C=C(C#N)C(=O)N1CCC[C@@H](n2nc(-c3ccc(Oc4ccccc4)cc3F)c3c(N)ncnc32)C1)N1CCC(O)CC1 [Example 18, (R)-2-(3-(4-amino-3-(2-fluoro-4-phenoxyphenyl)-1H-pyrazolo[3,4-d]pyrimidin-1-yl)piperidine-1-carbonyl)-4-(4-hydroxypiperidin-1-yl)-4-methylpent-2-enenitrile]",0.7
8,"CC(C)(C=C(C#N)C(=O)N1CCC[C@H]1Cn1nc(-c2ccc(Oc3ccccc3)cc2F)c2c(N)ncnc21)N1CCNCC1 [Example 9, 2-[(2S)-2-[[4-amino-3-(2-fluoro-4-phenoxy-phenyl)pyrazolo[3,4-d]pyrimidin-1-yl]methyl]pyrrolidine-1-carbonyl]-4-methyl-4-piperazin-1-yl-pent-2-enenitrile]",4.7
9,"CC(C)(/C=C(\C#N)C(=O)N1CCC[C@@H](n2nc(-c3ccc(Oc4ccccc4)cc3F)c3c(N)ncnc32)C1)N1CC2(COC2)C1 [Example 19, 2-[(3R)-3-[4-amino-3-(2-fluoro-4-phenoxy-phenyl)pyrazolo[3,4-d]pyrimidin-1-yl]piperidine-1-carbonyl]-4-methyl-4-(6-oxa-2-azaspiro[3.3]heptan-2-yl)pent-2-enenitrile]",1.5
10,"CN(C1COC1)C(C)(C)C=C(C#N)C(=O)N1CCC[C@H]1Cn1nc(-c2ccc(Oc3ccccc3)cc2F)c2c(N)ncnc21 [Example 10, 2-[(2S)-2-[[4-amino-3-(2-fluoro-4-phenoxy-phenyl)pyrazolo[3,4-d]pyrimidin-1-yl]methyl]pyrrolidine-1-carbonyl]-4-methyl-4-[methyl(oxetan-3-yl)amino]pent-2-enenitrile]",2.1
11,"CC(C)(C=C(C#N)C(=O)N1CCC[C@@H](n2nc(-c3ccc(Oc4ccccc4)cc3F)c3c(N)ncnc32)C1)N1CCN(S(C)(=O)=O)CC1 [Example 25, (R)-2-(3-(4-amino-3-(2-fluoro-4-phenoxyphenyl)-1H-pyrazolo[3,4-d]pyrimidin-1-yl)piperidine-1-carbonyl)-4-methyl-4-(4-(methylsulfonyl)piperazin-1-yl)pent-2-enenitrile]",1.4
12,"CCN1CCN(C(C)(C)C=C(C#N)C(=O)N2CCC[C@@H](n3nc(-c4ccc(Oc5ccccc5)cc4F)c4c(N)ncnc43)C2)CC1=O [Example 34, (R)-2-(3-(4-amino-3-(2-fluoro-4-phenoxyphenyl)-1H-pyrazolo[3,4-d]pyrimidin-1-yl)piperidine-1-carbonyl)-4-(4-ethyl-3-oxopiperazin-1-yl)-4-methylpent-2-enenitrile]",1.3
13,"CC(C)N1CCN(C(C)(C)C=C(C#N)C(=O)N2CCC[C@@H](n3nc(-c4ccc(Oc5ccccc5)cc4F)c4c(N)ncnc43)C2)CC1 [Example 21, (R)-2-(3-(4-amino-3-(2-fluoro-4-phenoxyphenyl)-1H-pyrazolo[3,4-d]pyrimidin-1-yl)piperidine-1-carbonyl)-4-(4-isopropylpiperazin-1-yl)-4-methylpent-2-enenitrile]",0.7
14,"CC(C)(C=C(C#N)C(=O)N1CCC1Cn1nc(-c2ccc(Oc3ccccc3)cc2F)c2c(N)ncnc21)N1CCOCC1 (stereo not shown) [Example 15, 2-[2-[[4-amino-3-(2-fluoro-4-phenoxy-phenyl)pyrazolo[3,4-d]pyrimidin-1-yl]methyl]azetidine-1-carbonyl]-4-methyl-4-morpholino-pent-2-enenitrile]",4.1

# Target: protein target (Homo sapiens (Human), UniProt Q06187)
# Assay: Reversibility of binding (compound in solution before and after target perturbation, HPLC-MS/MS)
# Settings: after 5 M guanidine hydrochloride denaturation and trypsin digestion
# Experimental: The following approach was developed to differentiate compounds that form irreversible covalent bond with their targets, such as non-cyano containing acrylamide compounds, from compound that form reversible covalent bond i.e., compounds and/or pharmaceutically acceptable salts of the present disclosure. […] The reactions were then treated with perturbations including both denaturation with 5 M guanidine hydrochloride and digestion with trypsin, disrupting proper folding of the target. […] The concentration of compound in solution was assessed both preceding and following perturbation using high performance liquid chromatography (HPLC) coupled to tandem mass spectrometry.
# Sequence of protein target (Q06187 whole entry): as above
row,Structure (SMILES),Compound in solution in the denatured or digested state?
1,"CN(C1COC1)C(C)(C)C=C(C#N)C(=O)N1CCC[C@H]1Cn1nc(-c2ccc(Oc3ccccc3)cc2F)c2c(N)ncnc21 [Example 10, 2-[(2S)-2-[[4-amino-3-(2-fluoro-4-phenoxy-phenyl)pyrazolo[3,4-d]pyrimidin-1-yl]methyl]pyrrolidine-1-carbonyl]-4-methyl-4-[methyl(oxetan-3-yl)amino]pent-2-enenitrile]",yes

# Same assay, conditions: native (folded) target, target in excess of compound
row,Structure (SMILES),Compound in solution in the native state?
1,"CN(C1COC1)C(C)(C)C=C(C#N)C(=O)N1CCC[C@H]1Cn1nc(-c2ccc(Oc3ccccc3)cc2F)c2c(N)ncnc21 [Example 10, 2-[(2S)-2-[[4-amino-3-(2-fluoro-4-phenoxy-phenyl)pyrazolo[3,4-d]pyrimidin-1-yl]methyl]pyrrolidine-1-carbonyl]-4-methyl-4-[methyl(oxetan-3-yl)amino]pent-2-enenitrile]",no
